Assay results: US5200343A, “Method for microbial dehalogenation of haloaliphatic compounds using a sulfate reducing bacteria, desulfomonile tiedjei” (Board of Trustees operating Michigan State University, priority 1991, dated 1993)
Read-outs that look alike come from different tables or passages of the source.

Key:
[1] = system: Desulfomonile tiedjei cells; test: 3-chlorobenzoate dechlorination by starved stationary phase induced cells with or without pyruvate (Table 3); format: cell-based
Method: Cultures were grown using strict anaerobic technique in a synthetic minimal medium amended with vitamins (DeWeerd, et al, Arch. of Microbiol. 154, 23-30 (1990)), pyruvate at 20 mM, and reduced with 1 mM cysteine and 0.1 mM Na2 S2 O4. The concentration of nicotinamide and 1,4-naphthoquinone were 500 μgl^-1 and 200 μgl^-1, respectively. Thiamine, hemin and lipoic acid were used at 50 μg/liter. To induce 3-chlorobenzoate dechlorination activity, 3-fluorobenzoate was added to 0.1 mM. The complete medium was inoculated with a 1% transfer from homologous medium (without fluorobenzoate). […]
Cultures were harvested by centrifugation and resuspended in 20 to 40% of the initial volume in a cold anaerobic assay buffer normally consisting of 50 mM NaCl, 10 mM sodium pyruvate, 10 mM HEPES (N-2[hydroxyethylP]piperazine-N'-[2-ethanesulfonic acid], hemisodium salt Sigma);, 0.00001% resazurin and reduced with 1 mM cysteine-HCl and 1 mM titanium (III) citrate. […] The assays were terminated at the indicated times by transferring the serum bottles to an ice water bath, where they were stored until analyzed. Protein concentrations were determined by a modification of the Lowry method (Hanson, R. S. and J. A. Phillips, In P. Gerhardt (ed.) Manual of methods for general microbiology. American Society for Microbiology, Washington, D. C. p. 328-364 (1981)). […]

[2] = system: 3-Chlorobenzoate Dechlorination Activity; test: Induction of 3-chlorobenzoate dechlorination activity by growth with 3-chlorobenzoate, analogues, or chloro- and iodobenzoates (Tables 4, 5); format: cell-based, Desulfomonile tiedjei
Method: Table 4. Cultures were grown in the presence of 3-chlorobenzoate or a 3-chlorobenzoate analogue substituted at the 1- or 3- position with the indicated functional groups. After several generations the culture were concentrated, washed and resuspended in anaerobic buffered salts containing 1 mM 3-chlorobenzoate and 10 mM pyruvate (as electron donor). […] After two hours samples were taken for benzoate analysis by HPLC. Values presented are the average of duplicate or triplicate cultures ± sample standard deviation.
Table 5. Chloro- and iodobenzoates were tested as inducers of 3-chlorobenzoate dehalogenation activity as described in the legend to Table 4. All compounds were initially at 500 μM; the 3-halo compounds were amended during growth as they were dehalogenated. Values presented are the average of duplicate or triplicate cultures± sample standard deviation.

[3] = system: Desulfomonile tiedjei cells; test: PCE and TCE dechlorination by resuspended cells induced with 3-fluorobenzoate versus non-induced cells (Table 1, FIG. 1); format: cell-based; conditions: for Mole % recovered, PCE / Mole % recovered, TCE / Mole % recovered, cis-DCE / Total Cl Removed: 2 μg/ml substrate, 37° C., 2 hr; for Mole % recovered, PCE / Mole % recovered, TCE / Mole % recovered, cis-DCE: average of duplicate vials; for Total Cl Removed: calculated from input concentration and Mole % recovered
Method: (§1) Cultures were grown using strict anaerobic technique in a synthetic minimal medium amended with vitamins (DeWeerd, et al, Arch. of Microbiol. 154, 23-30 (1990)), pyruvate at 20 mM, and reduced with 1 mM cysteine and 0.1 mM Na2 S2 O4. The concentration of nicotinamide and 1,4-naphthoquinone were 500 μgl^-1 and 200 μgl^-1, respectively. Thiamine, hemin and lipoic acid were used at 50 μg/liter. To induce 3-chlorobenzoate dechlorination activity, 3-fluorobenzoate was added to 0.1 mM. The complete medium was inoculated with a 1% transfer from homologous medium (without fluorobenzoate). Cultures were grown at 37° C. in the dark for about 14 days for fresh cells or 28 days for starved stationary phase cells.
(§2) Cultures were harvested by centrifugation and resuspended in 20 to 40% of the initial volume in a cold anaerobic assay buffer normally consisting of 50 mM NaCl, 10 mM sodium pyruvate, 10 mM HEPES (N-2[hydroxyethylP]piperazine-N'-[2-ethanesulfonic acid], hemisodium salt Sigma);, 0.00001% resazurin and reduced with 1 mM cysteine-HCl and 1 mM titanium (III) citrate. Resuspended cells were used to completely fill N2 sparged 10 ml serum bottles after which chlorinated ethylenes were added from a 0.5 or 1 mg/ml stock in methanol for PCE and TCE respectively. The vials were immediately sealed with Teflon lined rubber septa and aluminum crimp seals, leaving no headspace. The assays were commenced by transferring the serum bottles to a 37° C. water bath. The assays were terminated at the indicated times by transferring the serum bottles to an ice water bath, where they were stored until analyzed. Protein concentrations were determined by a modification of the Lowry method (Hanson, R. S. and J. A. Phillips, In P. Gerhardt (ed.) Manual of methods for general microbiology. American Society for Microbiology, Washington, D. C. p. 328-364 (1981)).
(§3) Chlorinated ethylenes were monitored with a Tekmar purge and trap unit (model 4000) connected to a Hewlett-Packard GC (Sunnyville, Calif.) equipped with an HP-5 cappillary column (30 m×0.53 mm×2.6 μm film thickness) and flame ionization detector. Samples (5 ml) were purged onto Tenax TA (Supelco, Bellefonte, Pa.) adsorbent with helium (30 ml/min for 16 min.), desorbed (180° C. for 4 min.), and separated using helium as a carrier at 6 ml/min. The temperature program was 30° C. for 8 min, increasing to 200° C. at 4° C./min and followed by an isothermal period of 5 min. The injection and detector temperatures were 220° C. and 300° C., respectively. PCE and its dechlorinated products were identified by comparison with authentic standards.
To further examine the transformation of both PCE and TCE and to determine if dechlorination of TCE also requires induction, a similar experiment was conducted to measure the initial transformation rates of PCE and TCE (Table 1.). […] The extent of transformation of PCE to TCE ([…] in 2H) was considerably faster than the rate of transformation of TCE to DCE ([…] in 2h), as expected from the redox potentials of these reactions (Vogel, T. M., et al., Environ. Sci. Technol. 21:722-736 (1987)) and results from mixed culture systems (Bouwer, E. J., and P. L. McCarty, Appl. Environ. Microbiol. 45:1286-1294 (1983)). The rate of transformation of PCE and TCE were much greater for the induced cultures than for the non-induced cultures.
^a suspensions were amended with PCE or TCE to a final concentration
of 2 μg/ml and incubated at 37° C. for 2 hr. Suspensions of
induced and uninduced cells contained 149 and 153 μg protein per ml
^b Data are presented as the average of duplicate vials with the
sample standard deviation in parenthesis.
^c Calculated from the input concentration of chlorinated ethylenes
and the Mole % of recovered material.

[4] = system: Desulfomonile tiedjei cells; test: PCE dechlorination by starved stationary phase induced cells with or without pyruvate (Table 3); format: cell-based; conditions: for Mole % recovered, PCE / Mole % recovered, TCE / Mole % recovered, cis-DCE / Mole % recovered, trans-DCE / Total Cl Removed: PCE 1.66 μg/ml, 37° C., 2 hours
Method: as §1, §2, §3
^a Starved stationary phase induced cultures were resuspended at a
concentration of 521 μg protein per ml in buffer without pyruvate,
amended with PCE to a final concentration of 1.66 μg/ml and incubated
at 37° C. for 2 hours. Data are the average of duplicate vials and
^b 0.1 mMole sodium pyruvate was added to duplicate vials before
addition of cell suspensions to give a final concentration of ca. 10 mM

[5] = system: Desulfomonile tiedjei; conditions: cited from earlier work
[6] = system: Desulfomonile tiedjei cells; test: Effect of different medium reductants and sterilant on PCE dechlorination by induced cells (Table 2); format: cell-based; conditions: PCE 1.66 μg/ml, 37° C., 2 hours
Method: as §1, with “The” for “Cultures were grown using strict anaerobic technique in a synthetic minimal medium amended with vitamins (DeWeerd, et al, Arch. of Microbiol. 154, 23-30 (1990)), pyruvate at 20 mM, and reduced with 1 mM cysteine and 0.1 mM Na2 S2 O4. The”
as §2, with “analyzed.” for “analyzed. Protein concentrations were determined by a modification of the Lowry method (Hanson, R. S. and J. A. Phillips, In P. Gerhardt (ed.) Manual of methods for general microbiology. American Society for Microbiology, Washington, D. C. p. 328-364 (1981)).”
as §3
Data are the average of duplicate vials and […]

O=C(O)c1cccc(Cl)c1 [3-chlorobenzoate]
3-chlorobenzoate dechlorination in absence of pyruvate relative to presence of pyruvate [1]: about 12% | Induction Activity (3-chlorobenzoate dechlorination activity) ([2]; Table 4, inducers at 500 μM except 3-formylbenzoate 100 μM and 3-chlorobenzoate (amended at intervals), assay 1 mM 3-chlorobenzoate, two hours): 672 ± 8 nMol/hr/mg protein | Induction Activity (3-chlorobenzoate dechlorination activity) ([2]; Table 5, inducers initially 500 μM, 3-halo compounds amended during growth): 672 ± 8 nMol/hr/mg protein

ClC(Cl)=C(Cl)Cl [PCE, tetrachloroethylene]
product formation from PCE or TCE ([3]; Only cultures pre-induced with 3-fluorobenzoate): measurable product formation | transformation of PCE to TCE and cis-DCE (FIG. 1) ([3]; cells grown with 0.1 mM 3-fluorobenzoate): Rapid transformation | Mole % recovered, PCE ([3]; induced (+)): 45.7 Mole % | Mole % recovered, TCE ([3]; induced (+)): 54.3 Mole % | Mole % recovered, cis-DCE ([3]; induced (+)): 0.0 Mole % | Total Cl Removed ([3]; induced (+)): 43.9 μmol/g prot. in 2 h | formation of trans-DCE from PCE ([3]; induced cells, longer time course): formation of small amounts of trans-DCE | Mole % recovered, PCE ([3]; non-induced (-)): 100.0 Mole % | Mole % recovered, TCE ([3]; non-induced (-)): 0.0 Mole % | Mole % recovered, cis-DCE ([3]; non-induced (-)): 0.0 Mole % | Total Cl Removed ([3]; non-induced (-)): 0.0 μmol/g prot. in 2 h | extent of transformation of PCE to TCE ([3]; pre-induced with 3-fluorobenzoate): 43.8 mol g protein ^-1 in 2H | dechlorination of PCE (FIG. 1) ([3]; uninduced cells): no dechlorination was detected | Mole % recovered, PCE ([4]; pyruvate + (ca. 10 mM)): 2.1 Mole % | Mole % recovered, TCE ([4]; pyruvate + (ca. 10 mM)): 44.1 Mole % | Mole % recovered, cis-DCE ([4]; pyruvate + (ca. 10 mM)): 50.3 Mole % | Mole % recovered, trans-DCE ([4]; pyruvate + (ca. 10 mM)): 3.5 Mole % | Total Cl Removed ([4]; pyruvate + (ca. 10 mM)): 29.1 (0.8) μmol/g prot. in 2 h | Mole % recovered, PCE ([4]; pyruvate -): 78.6 Mole % | Mole % recovered, TCE ([4]; pyruvate -): 21.4 Mole % | Mole % recovered, cis-DCE ([4]; pyruvate -): 0.0 Mole % | Mole % recovered, trans-DCE ([4]; pyruvate -): 0.0 Mole % | Total Cl Removed ([4]; pyruvate -): 4.1 (0.3) μmol/g prot. in 2 h | PCE dechlorination in absence of pyruvate relative to presence of pyruvate ([4]; starved stationary phase cells): about 14% | Dechlorination of PCE by D. tiedjei ([5]; Fathepure et al.): 2.34 μmolg protein^-1 day^-1 | Dechlorination of PCE by D. tiedjei ([5]; Suflita et al.): 4 μmol/l in five (5) months | Mole % recovered, PCE ([6]; Formaldehyde + (0.2%)): 95.0 Mole % | Mole % recovered, TCE ([6]; Formaldehyde + (0.2%)): 5.0 Mole % | Mole % recovered, cis-DCE ([6]; Formaldehyde + (0.2%)): 0.0 Mole % | Mole % recovered, trans-DCE ([6]; Formaldehyde + (0.2%)): 0.0 Mole % | Total Cl Removed ([6]; Formaldehyde + (0.2%)): 1.0 μmol/g prot. in 2 h | Mole % recovered, PCE ([6]; Formaldehyde -): 0.0 Mole % | Mole % recovered, TCE ([6]; Formaldehyde -): 26.4 Mole % | Mole % recovered, cis-DCE ([6]; Formaldehyde -): 69.4 Mole % | Mole % recovered, trans-DCE ([6]; Formaldehyde -): 4.2 Mole % | Total Cl Removed ([6]; Formaldehyde -): 34.1 μmol/g prot. in 2 h | Mole % recovered, PCE ([6]; reductant Na2 S (1 mM)): 6.3 Mole % | Mole % recovered, TCE ([6]; reductant Na2 S (1 mM)): 18.6 Mole % | Mole % recovered, cis-DCE ([6]; reductant Na2 S (1 mM)): 70.7 Mole % | Mole % recovered, trans-DCE ([6]; reductant Na2 S (1 mM)): 4.4 Mole % | Total Cl Removed ([6]; reductant Na2 S (1 mM)): 45.4 μmol/g prot. in 2 h | Mole % recovered, PCE ([6]; reductant TiCit): 0.0 Mole % | Mole % recovered, TCE ([6]; reductant TiCit): 9.4 Mole % | Mole % recovered, cis-DCE ([6]; reductant TiCit): 85.8 Mole % | Mole % recovered, trans-DCE ([6]; reductant TiCit): 4.7 Mole % | Total Cl Removed ([6]; reductant TiCit): 50.0 μmol/g prot. in 2 h
